Reference: BindingDB's records for doi:10.1021/bi501086s (The University of Texas, 2014)

Molecular target: T1, Acylase (Pseudomonas aeruginosa, UniProt A0A0G5TC92)
T1 sequence (A0A0G5TC92 whole entry): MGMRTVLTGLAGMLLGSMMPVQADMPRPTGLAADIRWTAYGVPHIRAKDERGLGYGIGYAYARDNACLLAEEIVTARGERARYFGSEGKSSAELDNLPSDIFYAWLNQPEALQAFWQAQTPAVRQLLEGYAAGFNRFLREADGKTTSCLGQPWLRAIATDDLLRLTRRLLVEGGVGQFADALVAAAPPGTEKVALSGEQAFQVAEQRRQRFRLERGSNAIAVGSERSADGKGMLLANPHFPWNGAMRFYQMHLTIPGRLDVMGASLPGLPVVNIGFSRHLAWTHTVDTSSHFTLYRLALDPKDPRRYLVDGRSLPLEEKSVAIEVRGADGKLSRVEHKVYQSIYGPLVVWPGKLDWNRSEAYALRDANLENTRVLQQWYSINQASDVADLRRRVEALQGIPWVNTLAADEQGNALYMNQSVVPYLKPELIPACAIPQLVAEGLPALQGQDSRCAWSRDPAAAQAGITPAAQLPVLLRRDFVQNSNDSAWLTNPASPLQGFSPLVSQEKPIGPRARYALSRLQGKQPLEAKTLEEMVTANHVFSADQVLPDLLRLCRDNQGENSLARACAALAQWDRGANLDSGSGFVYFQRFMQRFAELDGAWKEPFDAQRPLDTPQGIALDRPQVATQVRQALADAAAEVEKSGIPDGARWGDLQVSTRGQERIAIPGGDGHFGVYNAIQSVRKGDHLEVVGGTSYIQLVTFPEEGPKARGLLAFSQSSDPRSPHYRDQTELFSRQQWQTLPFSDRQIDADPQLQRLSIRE
Assay: PVdQ Inhibition Assay
Details: pH 8
Description: Briefly, stock solutions of the colorimetric PvdQ substrate (4-nitrophenyl dodecanoate) were prepared in methanol and stock solutions of each n-alkylboronic acid inhibitor in DMSO. […] Each reaction was initiated by addition of purified PvdQ (10 nM) and product formation was monitored by measuring the increase in absorbance at 402 nm continuously.

Ki	SMILES
0.0021 mM	CCCCCCB(O)O [1-Hexylboronic acid (C6-B(OH)2)]
2 mM	CCB(O)O [1-Ethylboronic acid (C2-B(OH)2)]
4.7 mM	CCCB(O)O [1-Propylboronic acid (C3-B(OH)2)]
0.55 mM	CCCCB(O)O [Borinic acid derivative]
